EC50 and IC50 data for 25 compounds are collected here from ChEMBL document CHEMBL6134910, “Discovery of a New Class of Orexin 2 Receptor Agonists as a Potential Treatment for Narcolepsy” (J Med Chem, 2025).

Sequence of Cytochrome P450 2C9 (P11712 whole entry): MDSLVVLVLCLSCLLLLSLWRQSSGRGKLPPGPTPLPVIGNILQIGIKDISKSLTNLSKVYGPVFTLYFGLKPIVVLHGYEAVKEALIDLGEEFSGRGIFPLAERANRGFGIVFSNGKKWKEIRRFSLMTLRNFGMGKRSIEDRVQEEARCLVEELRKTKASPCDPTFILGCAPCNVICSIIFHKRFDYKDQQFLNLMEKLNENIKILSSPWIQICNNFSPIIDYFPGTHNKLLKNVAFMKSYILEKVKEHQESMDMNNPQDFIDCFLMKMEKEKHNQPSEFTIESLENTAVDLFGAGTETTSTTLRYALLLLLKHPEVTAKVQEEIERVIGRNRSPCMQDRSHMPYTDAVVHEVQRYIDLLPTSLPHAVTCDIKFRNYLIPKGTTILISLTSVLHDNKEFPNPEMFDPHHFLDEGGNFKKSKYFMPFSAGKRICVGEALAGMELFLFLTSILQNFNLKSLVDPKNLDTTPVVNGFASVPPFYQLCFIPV

The target of one experiment is T1, Orexin receptor type 2 (Homo sapiens, UniProt O43614).
T1 sequence (O43614 whole entry): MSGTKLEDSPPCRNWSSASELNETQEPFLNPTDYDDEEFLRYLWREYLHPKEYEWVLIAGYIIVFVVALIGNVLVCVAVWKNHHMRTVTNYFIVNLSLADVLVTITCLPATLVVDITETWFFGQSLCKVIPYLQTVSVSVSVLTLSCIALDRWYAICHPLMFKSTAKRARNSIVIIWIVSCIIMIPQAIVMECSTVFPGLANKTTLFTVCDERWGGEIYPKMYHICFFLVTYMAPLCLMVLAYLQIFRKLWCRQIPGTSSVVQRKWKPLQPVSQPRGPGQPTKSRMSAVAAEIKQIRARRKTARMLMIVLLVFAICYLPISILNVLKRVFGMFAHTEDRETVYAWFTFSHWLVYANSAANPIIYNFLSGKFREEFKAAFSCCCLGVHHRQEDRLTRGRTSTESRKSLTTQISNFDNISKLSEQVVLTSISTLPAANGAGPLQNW
The experiment is described as follows: Agonist activity at human OX2 receptor expressed in HEK293 cells assessed as IP-1 accumulation incubated for […] by HTRF IP-one Gq detection assay. In kind it is functional, cell-based. On the technique in general: In TR-FRET formats the signal depends on donor and acceptor labels being close together.
One may read the EC50 as the concentration needed to bring the measured effect to its halfway point. With `Cn1ncc(CC(=O)N(C2CCCC2)C(C(=O)NC23CC(C)(C2)C3)C2CCCC2)c1-c1ccccc1` (centres undefined), the EC50 was greater than 20 µM.

The target of a further experiment is Cytochrome P450 3A4 (Homo sapiens, UniProt P08684). The experiment is described as follows: Inhibition of CYP3A4 in human liver microsome using testosterone as substrate incubated for 7 mins. In kind it is ADME, microsomes. A general note: Liver microsomes are a subcellular fraction often used to study metabolism.
Sequence of Cytochrome P450 3A4 (P08684 whole entry): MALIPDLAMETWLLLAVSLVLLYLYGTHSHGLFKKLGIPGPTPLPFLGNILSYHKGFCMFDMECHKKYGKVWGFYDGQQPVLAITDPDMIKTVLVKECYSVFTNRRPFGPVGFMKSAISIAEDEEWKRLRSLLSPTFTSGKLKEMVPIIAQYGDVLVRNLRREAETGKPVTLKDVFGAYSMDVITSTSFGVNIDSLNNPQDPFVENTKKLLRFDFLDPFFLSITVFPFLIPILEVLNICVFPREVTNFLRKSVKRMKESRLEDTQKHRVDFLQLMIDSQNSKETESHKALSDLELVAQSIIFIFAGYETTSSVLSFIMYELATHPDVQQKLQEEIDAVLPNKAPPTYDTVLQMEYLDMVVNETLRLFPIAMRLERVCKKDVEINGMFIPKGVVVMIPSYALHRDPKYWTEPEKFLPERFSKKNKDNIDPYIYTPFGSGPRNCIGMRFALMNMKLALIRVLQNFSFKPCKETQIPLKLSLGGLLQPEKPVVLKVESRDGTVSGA
Usually IC50 stands for the concentration at which inhibition is half-maximal. A high value points to a need for much substance. `Cn1nnc(-c2c(CC(=O)N(C3CCCC3)C(C(=O)NC34CC(C)(C3)C4)c3ccccc3)cnn2C)n1` (centres undefined) displayed an IC50 of 12 µM.
Take `Cn1ncc(CC(=O)N(C2CCCC2)[C@@H](C(=O)NC23CC(C)(C2)C3)c2ccccc2)c1-n1nccn1`: the IC50 amounted to 4 µM. Against the preceding compound, the IC50 is about 3-fold lower.
As to `Cc1ncn(CC(=O)N(C[C@H]2CCCO2)[C@@H](C(=O)NC2CCCCC2)c2ccccc2)c1-c1ccccc1`, the IC50 was 7.3 µM.
The compound `CC12CC(NC(=O)[C@@H](c3ccccc3)N(C(=O)Cn3cnc(Cl)c3-c3ccccc3)C3CCCC3)(C1)C2` yielded an IC50 of 18 µM. This IC50 is about 2.5-fold higher than that of the compound before.
For the compound `Cc1nsc(CC(=O)N(C2CCCC2)[C@@H](C(=O)NC23CC(C)(C2)C3)c2ccccc2)c1-c1ccccc1`, the IC50 amounted to 1.4 µM.
The same measure, in the same setting: as for `Cc1ncn(CC(=O)N(C2CCCC2)[C@@H](C(=O)NC23CC(C)(C2)C3)c2ccccc2)c1-c1ccccc1`, the figure is 7.3 µM; as for `Cn1ncc(CC(=O)N(C2CCCC2)[C@@H](C(=O)NC23CC(C)(C2)C3)c2ccccc2)c1-c1cccnc1`, 7.6 µM; as for `CC(C)N(C(=O)Cc1cnn(C)c1-c1ccccc1)[C@@H](c1cn(C23CC(C)(C2)C3)nn1)c1cc(F)ccc1F`, 1 µM.
The compound `Cn1ccc(-c2c(CC(=O)N(C3CCCC3)C(C(=O)NC34CC(C)(C3)C4)c3ccccc3)cnn2C)n1` (centres undefined) came in with an IC50 of 2.5 µM.
Turning to `CC12CC(NC(=O)[C@@H](c3ccccc3)N(C(=O)Cc3cnn(C(F)F)c3-c3ccccc3)C3CCCC3)(C1)C2`, the midpoint of inhibition, the IC50, lay at 2 µM.
Turning to `Cn1ncc(CC(=O)N(C2CCCC2)C(C(=O)NC23CC(C)(C2)C3)c2ccccc2)c1-c1ncccn1` (centres undefined), the IC50 came out at 6.8 µM.
With `Cn1ncc(CC(=O)N(C2CCCC2)[C@@H](C(=O)NC23CC(C)(C2)C3)c2ccccc2)c1-c1ccccc1`, the IC50 was determined as 5 µM.
On to `O=C(NC1CCCCC1)[C@@H](c1ccccc1)N(C[C@H]1CCCO1)C(=O)Cn1cnc2ccccc21`, for which it took 10 µM to reach half-maximal inhibition (IC50).
`CC12CC(NC(=O)[C@@H](c3ccccc3)N(C(=O)Cc3cnoc3-c3ccccc3)C3CCCC3)(C1)C2` registered an IC50 of 1.9 µM. Against the preceding compound, the IC50 is about 5.3-fold lower.
`O=C(NC1CCCCC1)[C@@H](c1ccccc1)N(C[C@H]1CCCO1)C(=O)Cn1cncc1-c1ccccc1` yielded an IC50 of 0.25 µM.
In the case of `COc1cccc(-c2c(CC(=O)N(C3CCCC3)C(C(=O)NC34CC(C)(C3)C4)c3ccccc3)cnn2C)c1` (centres undefined), the IC50 is 1.5 µM.
Same read-out and setting: as for `COc1cccc(-c2c(CC(=O)N(C3CCCC3)C(C(=O)NC34CC(C)(C3)C4)c3ccccc3)cnn2C)c1F` (centres undefined), the figure is 0.9 µM; as for `CC12CC(NC(=O)[C@@H](c3ccccc3)N(C(=O)Cc3cnnn3-c3ccccc3)C3CCCC3)(C1)C2`, 1.6 µM.
On to `CC(C)N(C(=O)Cc1cnn(C)c1-c1ccccc1)[C@@H](C(=O)NC12CC(C)(C1)C2)c1cc(F)ccc1F`, for which the IC50 worked out at 0.3 µM.
`Cn1ncc(CC(=O)N(C2CCCC2)C(C(=O)NC23CC(C)(C2)C3)c2ccccc2)c1-c1c(F)cccc1F` (centres undefined) displayed an IC50 of 7 µM. Against the preceding compound, the IC50 is about 23-fold higher.
On the same count and under the same terms, the value for `Cn1ncc(CC(=O)N(C2CCCC2)C(C(=O)NC23CC(C)(C2)C3)c2ccccc2)c1-c1coc(C2CC2)n1` (centres undefined) was 4.2 µM.
In turn, `Cn1ncc(CC(=O)N(C2CCCC2)C(C(=O)NC23CC(C)(C2)C3)c2ccccc2)c1-c1ccc(F)cc1F` (centres undefined) displayed a half-inhibitory concentration (IC50) of 1.6 µM.

In a further experiment the target is T2, Orexin/Hypocretin receptor type 1 (Homo sapiens, UniProt O43613).
T2 sequence (O43613 whole entry): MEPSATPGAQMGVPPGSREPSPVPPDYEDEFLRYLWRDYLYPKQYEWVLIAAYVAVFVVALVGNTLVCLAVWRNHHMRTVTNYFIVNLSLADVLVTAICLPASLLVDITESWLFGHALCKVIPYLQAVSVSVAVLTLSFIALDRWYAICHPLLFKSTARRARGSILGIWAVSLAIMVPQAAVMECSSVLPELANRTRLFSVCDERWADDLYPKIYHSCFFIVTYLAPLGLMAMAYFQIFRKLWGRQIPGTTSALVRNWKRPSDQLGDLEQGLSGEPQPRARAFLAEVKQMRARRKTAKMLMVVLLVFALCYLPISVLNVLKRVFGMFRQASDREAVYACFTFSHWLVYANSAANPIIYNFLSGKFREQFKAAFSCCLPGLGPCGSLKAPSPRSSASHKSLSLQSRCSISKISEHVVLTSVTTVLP
The experiment is described as follows: Agonist activity at human OX1 receptor expressed in HEK293 cells assessed as IP-1 accumulation incubated for […] by HTRF IP-one Gq detection assay. In kind it is functional, cell-based.
For the compound `Cn1nnc(-c2c(CC(=O)N(C3CC4(CC4)C3)[C@@H](C(=O)NC34CC(C)(C3)C4)c3ccccc3Cl)cnn2C)n1`, the concentration giving a half-maximal response (EC50) was greater than 20 µM.
With `Cn1nnc(-c2oncc2CC(=O)N(C2CC3(CC3)C2)[C@@H](C(=O)NC23CC(C)(C2)C3)c2cc(F)ccc2F)n1`, the EC50 was greater than 20 µM.

In another experiment the target is Cytochrome P450 2D6 (Homo sapiens, UniProt P10635). The experiment is described as follows: Inhibition of CYP2D6 in human liver microsome using dextrometorphan as substrate incubated for 30 mins by LC-MS/MS analysis. In kind it is ADME, microsomes.
Sequence of Cytochrome P450 2D6 (P10635 whole entry): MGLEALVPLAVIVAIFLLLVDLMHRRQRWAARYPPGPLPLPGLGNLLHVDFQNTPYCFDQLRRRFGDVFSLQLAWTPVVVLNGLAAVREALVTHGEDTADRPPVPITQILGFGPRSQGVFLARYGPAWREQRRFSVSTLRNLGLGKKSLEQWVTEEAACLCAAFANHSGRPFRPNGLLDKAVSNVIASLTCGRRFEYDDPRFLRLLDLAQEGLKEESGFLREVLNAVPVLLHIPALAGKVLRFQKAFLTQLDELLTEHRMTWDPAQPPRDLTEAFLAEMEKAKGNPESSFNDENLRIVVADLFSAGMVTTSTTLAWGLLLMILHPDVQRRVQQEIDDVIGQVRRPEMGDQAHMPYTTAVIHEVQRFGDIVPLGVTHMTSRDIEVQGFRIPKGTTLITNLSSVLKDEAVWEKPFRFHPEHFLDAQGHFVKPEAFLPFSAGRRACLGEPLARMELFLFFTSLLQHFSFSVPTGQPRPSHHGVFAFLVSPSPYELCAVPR
In turn, `Cn1nnc(-c2c(CC(=O)N(C3CC4(CC4)C3)[C@@H](C(=O)NC34CC(C)(C3)C4)c3ccccc3Cl)cnn2C)n1` registered an IC50 of 5.3 µM.
`Cn1nnc(-c2oncc2CC(=O)N(C2CC3(CC3)C2)[C@@H](C(=O)NC23CC(C)(C2)C3)c2cc(F)ccc2F)n1` displayed an IC50 of 20 µM.

A further experiment has as its target Cytochrome P450 2C9 (Homo sapiens, UniProt P11712). The experiment is described as follows: Inhibition of CYP2C9 in human liver microsome using diclofenac as substrate incubated for 6 mins by LC-MS/MS analysis. In kind it is ADME, microsomes.
`Cn1nnc(-c2c(CC(=O)N(C3CC4(CC4)C3)[C@@H](C(=O)NC34CC(C)(C3)C4)c3ccccc3Cl)cnn2C)n1`: the half-inhibitory concentration (IC50) was 20 µM. In other words, the double-digit micromolar range.
For `Cn1nnc(-c2oncc2CC(=O)N(C2CC3(CC3)C2)[C@@H](C(=O)NC23CC(C)(C2)C3)c2cc(F)ccc2F)n1`, the half-inhibitory concentration (IC50) turned out to be 24 µM.
